In doi:10.1101/2020.03.06.976563v1 (biorxiv, 2020) one finds Ki data, which are given here for 20 compounds.

The target in assay [1] is T1, STK16 (Homo sapiens, UniProt O75716). The experiment in a line: biochemical.
Assay [2] concerns the target T2, cyclin G associated kinase (GAK), kinase domain (Homo sapiens, UniProt O14976).
T2 sequence (O14976 12-347 limits assumed): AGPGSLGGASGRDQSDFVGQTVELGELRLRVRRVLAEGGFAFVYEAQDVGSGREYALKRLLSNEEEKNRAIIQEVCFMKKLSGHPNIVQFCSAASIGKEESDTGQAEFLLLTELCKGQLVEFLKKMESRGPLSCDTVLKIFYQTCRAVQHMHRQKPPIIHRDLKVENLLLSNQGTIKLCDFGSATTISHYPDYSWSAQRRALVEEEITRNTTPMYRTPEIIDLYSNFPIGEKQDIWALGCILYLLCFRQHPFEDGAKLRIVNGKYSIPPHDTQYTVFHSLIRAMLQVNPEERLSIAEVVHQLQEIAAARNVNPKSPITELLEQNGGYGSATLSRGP
The assay can be described thus: biochemical.

Assay [3] has as its target T3, AAK1 (Homo sapiens, UniProt Q2M2I8). The assay can be described thus: biochemical.
Assay [4] addresses T4, BMP2K (Homo sapiens, UniProt Q9NSY1). The assay can be described thus: biochemical.
The target of assay [5] is T2, cyclin G associated kinase (GAK), kinase domain. The experiment in a line: TR-FRET ligand binding displacement assay, 16-point dose response.
For assay [6], the target named is T1, STK16. The experiment in a line: biochemical. The source holds these as a separate data set.
Assay [7] has as its target T3, AAK1. The assay can be described thus: biochemical. The source holds these as a separate data set.
Assay [8] deals with T4, BMP2K. The experiment in a line: biochemical. This is another data set of the same source.
The target of assay [9] is T2, cyclin G associated kinase (GAK), kinase domain. The experiment in a line: biochemical. The source holds these as a separate data set.

Where two headings read alike, the source gives them in different places.

T3 sequence (Q2M2I8 whole entry): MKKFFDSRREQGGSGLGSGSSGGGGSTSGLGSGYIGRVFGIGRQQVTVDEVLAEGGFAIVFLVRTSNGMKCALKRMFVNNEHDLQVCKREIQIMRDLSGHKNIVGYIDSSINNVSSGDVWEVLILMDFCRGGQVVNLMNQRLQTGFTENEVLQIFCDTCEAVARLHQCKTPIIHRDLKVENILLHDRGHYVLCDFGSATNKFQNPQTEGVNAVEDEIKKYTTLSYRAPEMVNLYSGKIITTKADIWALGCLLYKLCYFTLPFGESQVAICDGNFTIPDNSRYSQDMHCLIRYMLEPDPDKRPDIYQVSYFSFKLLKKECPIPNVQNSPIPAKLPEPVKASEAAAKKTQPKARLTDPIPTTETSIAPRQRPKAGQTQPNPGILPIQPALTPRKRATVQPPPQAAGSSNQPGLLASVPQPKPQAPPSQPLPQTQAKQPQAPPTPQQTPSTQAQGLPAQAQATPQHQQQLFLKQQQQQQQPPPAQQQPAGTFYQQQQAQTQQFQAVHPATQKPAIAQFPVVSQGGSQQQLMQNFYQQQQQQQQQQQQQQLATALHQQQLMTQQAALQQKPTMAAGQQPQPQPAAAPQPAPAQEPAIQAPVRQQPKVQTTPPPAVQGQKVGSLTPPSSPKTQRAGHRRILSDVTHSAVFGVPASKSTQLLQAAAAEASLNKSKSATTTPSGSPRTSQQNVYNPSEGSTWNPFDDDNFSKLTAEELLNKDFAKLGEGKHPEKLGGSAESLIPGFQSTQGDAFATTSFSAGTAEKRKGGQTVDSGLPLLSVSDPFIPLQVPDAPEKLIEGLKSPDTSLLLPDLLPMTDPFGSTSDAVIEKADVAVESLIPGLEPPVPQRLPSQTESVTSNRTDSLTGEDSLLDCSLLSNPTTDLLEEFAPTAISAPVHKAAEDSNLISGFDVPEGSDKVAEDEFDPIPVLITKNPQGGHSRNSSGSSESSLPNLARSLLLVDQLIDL
T1 sequence (O75716 whole entry, the tested form may be a part): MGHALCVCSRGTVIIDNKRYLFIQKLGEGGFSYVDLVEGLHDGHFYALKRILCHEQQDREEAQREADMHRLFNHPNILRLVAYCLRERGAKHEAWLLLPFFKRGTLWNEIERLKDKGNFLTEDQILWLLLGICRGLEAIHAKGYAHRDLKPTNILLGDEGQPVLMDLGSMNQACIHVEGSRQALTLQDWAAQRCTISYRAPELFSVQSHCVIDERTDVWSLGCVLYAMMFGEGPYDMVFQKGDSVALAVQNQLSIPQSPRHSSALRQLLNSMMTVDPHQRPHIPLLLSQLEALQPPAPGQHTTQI
T4 sequence (Q9NSY1 whole entry, the tested form may be a part): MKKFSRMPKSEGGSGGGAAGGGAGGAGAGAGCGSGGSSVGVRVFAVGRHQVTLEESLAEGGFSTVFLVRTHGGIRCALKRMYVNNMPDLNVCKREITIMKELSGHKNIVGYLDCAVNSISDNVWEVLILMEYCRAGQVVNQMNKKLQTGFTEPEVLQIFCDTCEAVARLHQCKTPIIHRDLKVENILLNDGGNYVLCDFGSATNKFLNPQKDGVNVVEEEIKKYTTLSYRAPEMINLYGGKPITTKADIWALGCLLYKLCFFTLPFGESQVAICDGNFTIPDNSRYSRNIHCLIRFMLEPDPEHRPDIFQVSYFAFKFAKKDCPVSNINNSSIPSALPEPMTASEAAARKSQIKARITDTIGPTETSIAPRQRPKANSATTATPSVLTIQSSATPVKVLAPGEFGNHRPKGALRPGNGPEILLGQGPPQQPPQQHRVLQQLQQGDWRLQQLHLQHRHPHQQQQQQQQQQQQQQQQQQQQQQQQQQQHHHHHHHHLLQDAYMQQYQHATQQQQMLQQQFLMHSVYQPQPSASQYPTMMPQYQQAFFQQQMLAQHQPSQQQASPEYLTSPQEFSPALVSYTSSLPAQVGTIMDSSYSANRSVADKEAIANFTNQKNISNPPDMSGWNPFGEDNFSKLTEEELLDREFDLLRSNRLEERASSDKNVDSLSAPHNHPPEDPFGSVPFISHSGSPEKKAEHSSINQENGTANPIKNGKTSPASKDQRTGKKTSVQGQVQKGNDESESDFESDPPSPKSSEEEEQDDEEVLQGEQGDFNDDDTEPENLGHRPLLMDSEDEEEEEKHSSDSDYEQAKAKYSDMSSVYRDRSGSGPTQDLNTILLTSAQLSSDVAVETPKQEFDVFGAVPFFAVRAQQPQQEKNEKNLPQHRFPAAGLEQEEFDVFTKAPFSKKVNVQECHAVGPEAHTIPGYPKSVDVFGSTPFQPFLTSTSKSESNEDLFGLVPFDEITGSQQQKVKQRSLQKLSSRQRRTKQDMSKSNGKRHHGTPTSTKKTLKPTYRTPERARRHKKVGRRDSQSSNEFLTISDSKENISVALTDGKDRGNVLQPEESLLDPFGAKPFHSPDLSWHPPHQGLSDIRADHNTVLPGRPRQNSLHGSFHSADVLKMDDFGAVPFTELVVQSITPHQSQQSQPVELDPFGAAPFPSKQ

In general, Ki refers to a dissociation constant, usually derived from enzyme kinetics or from competition with a known ligand. `Oc1cccc(Nc2ccnc3ccc(C(F)(F)F)cc23)c1` [compound 5, 3-((6-(trifluoromethyl)quinolin-4-yl)amino)phenol]: the Ki on STK16 [1] stood at 3 µM; in [2] it was 0.0047 µM; on AAK1 [3], 2.6 µM; on BMP2K [4] it was 5.8 µM.

With `O=[N+]([O-])c1cccc(Nc2ccnc3ccc(C(F)(F)F)cc23)c1` [compound 6, N-(3-nitrophenyl)-6-(trifluoromethyl)quinolin-4-amine], the inhibition constant (Ki) on STK16 [1] is greater than 100 µM; in [2], 0.21 µM; on AAK1 [3] it was greater than 100 µM; on BMP2K [4], greater than 100 µM.

For `CN(C)c1cccc(Nc2ccnc3ccc(C(F)(F)F)cc23)c1` [compound 8, ^1N,^1N-dimethyl-3-N-[6-(trifluoromethyl)quinolin-4-yl]benzene-1,3-diamine], the Ki on STK16 [1] is 13 µM; in assay [5], 0.65 µM; on AAK1 [3], greater than 100 µM; at BMP2K [4], greater than 100 µM.

As to `CN(C)c1cccc(Nc2ccnc3ccccc23)c1` [compound 10, N1 ,N1-dimethyl-N3-(quinolin-4-yl)benzene-1,3-diamine], the Ki on STK16 [1] is greater than 100 µM; in [2], 0.97 µM; at AAK1 [3] it was 29 µM; at BMP2K [4] it was greater than 100 µM.

Regarding `OCc1cccc(Nc2ccnc3ccc(C(F)(F)F)cc23)c1` [compound 11, (3-{[6-(trifluoromethyl)quinolin-4-yl]amino}phenyl)methanol], the inhibition constant (Ki) on STK16 [1] was 20 µM; in [2], 0.06 µM; at AAK1 [3], 10 µM; on BMP2K [4], 15 µM.

With `OCc1ccccc1Nc1ccnc2ccc(C(F)(F)F)cc12` [compound 12, (2-{[6-(trifluoromethyl)quinolin-4-yl]amino}phenyl)methanol], the inhibition constant (Ki) on STK16 [1] was 5 µM; in assay [2] it was 0.041 µM; on AAK1 [3], 8.5 µM; at BMP2K [4] it was 16 µM.

With `COc1cccc(Nc2ccnc3ccc(Br)cc23)c1` [compound 13, 6-bromo-N-(3-methoxyphenyl)quinolin-4-amine], the inhibition constant (Ki) at STK16 [6] came out at 32 µM; at AAK1 [7], 3 µM; at BMP2K [8], 7 µM; in assay [9], 0.0029 µM.

As to `Oc1cccc(Nc2ccnc3ccc(Br)cc23)c1` [compound 14, 3-((6-bromoquinolin-4-yl)amino)phenol], the Ki at STK16 [6] worked out at 5.7 µM; on AAK1 [7], 0.5 µM; on BMP2K [8], 2 µM; in assay [9] it was 0.0012 µM.

For the compound `COc1cccc(Nc2ccnc3ccccc23)c1` [compound 15, N-(3-methoxyphenyl)quinolin-4-amine], the Ki is greater than 100 µM at STK16 [1], 0.027 µM in assay [2], 25 µM at AAK1 [3] and greater than 100 µM on BMP2K [4].

Take `Oc1cccc(Nc2ccnc3ccccc23)c1` [compound 16, 3-(quinolin-4-ylamino)phenol]: the Ki was greater than 100 µM on STK16 [1], 0.012 µM in assay [2], 6.6 µM at AAK1 [3] and 30 µM on BMP2K [4].

As to `COc1cccc(Nc2ccnc3ccc(OC)cc23)c1` [compound 17, 6-methoxy-N-(3-methoxyphenyl)quinolin-4-amine], the inhibition constant (Ki) on STK16 [1] was greater than 100 µM; in [2], 0.0079 µM; on AAK1 [3], 9.1 µM; on BMP2K [4] it was 26 µM.

With `COc1ccc2nccc(Nc3cccc(O)c3)c2c1` [compound 18, 3-((6-methoxyquinolin-4-yl)amino)phenol], the Ki stood at 27 µM at STK16 [1], 0.0057 µM in assay [2], 1.6 µM at AAK1 [3] and 7.3 µM at BMP2K [4].

Regarding `COc1cccc(Nc2ccnc3ccc(S(C)(=O)=O)cc23)c1` [compound 19, 6-methanesulfonyl-N-(3-methoxyphenyl)quinolin-4-amine], the inhibitory constant (Ki) was greater than 100 µM at STK16 [1], 0.03 µM in assay [2], 23 µM on AAK1 [3] and 19 µM on BMP2K [4].

`O=[N+]([O-])c1cccc(Nc2ccnc3ccc(Br)cc23)c1` [compound 21, 6-bromo-N-(3-nitrophenyl)quinolin-4-amine]: the Ki at STK16 [6] was greater than 100 µM; on AAK1 [7], 40 µM; on BMP2K [8], greater than 100 µM; in assay [9], 0.056 µM.

Regarding `Brc1ccc2nccc(Nc3ccc4c(c3)OCO4)c2c1` [compound 25, N-(2H-1,3-benzodioxol-5-yl)-6-bromoquinolin-4-amine], the inhibition constant (Ki) on STK16 [6] was found to be 10 µM; on AAK1 [7] it was 5.2 µM; on BMP2K [8], 12 µM; in assay [9], 0.035 µM.

For the compound `Brc1ccc2nccc(Nc3cccc4c3OCO4)c2c1` [compound 27, N-(Benzo[d][1,3]dioxol-4-yl)-6-bromoquinolin-4-amine], the Ki at STK16 [6], on AAK1 [7] and at BMP2K [8] was greater than 100 µM in each case.

Consider `COc1cccc(Nc2ncnc3ccc(Br)cc23)c1` [compound 29, 6-bromo-N-(3-methoxyphenyl)quinazolin-4-amine], for which the inhibition constant Ki was determined as 5.5 µM at STK16 [6], 0.39 µM on AAK1 [7], 1.3 µM on BMP2K [8] and 0.011 µM in assay [9].

With `FS(F)(F)(F)(F)c1cccc(Nc2ccnc3ccc(Br)cc23)c1` [compound 32, 6-bromo-N-(3-(pentafluoro-λ^6-sulfaneyl)phenyl)quinolin-4-amine], the inhibition constant (Ki) on STK16 [6] was greater than 100 µM; on AAK1 [7] it was greater than 100 µM; on BMP2K [8] it was greater than 100 µM; in assay [9] it was 4.9 µM.

For the compound `CC(C)(C)Oc1cccc(Nc2ccnc3ccc(Br)cc23)c1` [compound 33, 6-bromo-N-[3-(tert-butoxy)phenyl]quinolin-4-amine], the inhibitory constant (Ki) on STK16 [6] is 12 µM; on AAK1 [7], 15 µM; on BMP2K [8], greater than 100 µM; in assay [9], 2.2 µM.

For `CC(C)(C)c1cccc(Nc2ccnc3ccc(Br)cc23)c1` [compound 34, 6-bromo-N-(3-tert-butylphenyl)quinolin-4-amine], the Ki is greater than 100 µM on STK16 [6], greater than 100 µM at AAK1 [7], greater than 100 µM at BMP2K [8] and 2.6 µM in assay [9].
